Results on 17 molecules are retold here after patent US12150995B2, “IRAK degraders and uses thereof” (Kymera Therapeutics, Inc., priority 2020, dated 2024).

Bounds are passed on as bounds.

For the experiment, the target named is T1, IRAK4 (Homo sapiens, UniProt Q9NWZ3).
T1 construct: endogenous in cells; host or cells: OCI-LY10
T1 sequence (Q9NWZ3 1-460): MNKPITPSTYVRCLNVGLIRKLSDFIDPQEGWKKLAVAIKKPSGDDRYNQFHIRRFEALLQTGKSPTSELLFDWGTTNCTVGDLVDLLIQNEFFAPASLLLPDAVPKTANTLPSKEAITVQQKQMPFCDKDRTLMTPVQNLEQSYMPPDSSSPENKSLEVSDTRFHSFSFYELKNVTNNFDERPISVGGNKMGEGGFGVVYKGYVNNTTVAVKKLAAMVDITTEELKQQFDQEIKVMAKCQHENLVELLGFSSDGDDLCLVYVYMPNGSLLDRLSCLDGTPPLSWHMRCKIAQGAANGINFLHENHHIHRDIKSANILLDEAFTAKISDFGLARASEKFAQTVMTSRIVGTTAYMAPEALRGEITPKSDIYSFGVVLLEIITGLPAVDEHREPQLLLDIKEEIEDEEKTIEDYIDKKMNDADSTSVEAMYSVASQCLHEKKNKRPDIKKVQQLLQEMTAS
The experiment in a line: IRAK4 MSD Degradation in OCI-LY10. Type of experiment: cell-based. The settings on record: OCI-LY10 cells, Meso Scale Discovery, incubated 4 to 24 hours. The method, boiled down:
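IRAK4 degradation was quantified by Meso Scale electrochemiluminescence (anti-IRAK4 capture and detection antibodies) in lysates of treated OCI-LY10 cells. Compounds were dosed at 8 concentrations (1:3 dilutions, top 1 to 10 μM) for 4 to 24 h; DC50 derived by three-parameter logistic fitting.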

As usually defined, the DC50 is the midpoint of the concentration-degradation curve. Read a high DC50 as a less potent degrader. Regarding `Cc1c(C2CCN(C[C@H]3CC[C@H](n4cc5cc(NC(=O)c6cccc(C(F)(F)F)n6)ncc5n4)CC3)CC2)ccc2c1n(C)c(=O)n2C1CCC(=O)NC1=O` (some centres unmarked) [I-210], the DC50 is above 200 nM.

`COc1cc2nc([C@H]3CC[C@H](CN(C)CCCCNc4cccc5c4C(=O)N(C4CCC(=O)NC4=O)C5=O)CC3)sc2cc1NC(=O)c1cccc(C)n1` (some centres unmarked) [I-437] displayed a DC50 of 10 to 50 nM.

`CC(C)(O)c1cc2nc([C@H]3CC[C@H](C(=O)N4CCC5(CC4)CC(CCNc4cccc6c4C(=O)N(C4CCC(=O)NC4=O)C6=O)C5)CC3)sc2cc1NC(=O)c1cccc(C(F)(F)F)n1` (some centres unmarked) [I-486] yielded a DC50 of 100 to 200 nM.

Molecule `CC(C)Nc1cc(-n2ccc3cc(C#N)cnc32)ncc1-c1cn([C@H]2CC[C@H](CN3CCC(c4cccc5c(N6CCC(=O)NC6=O)cncc45)CC3)CC2)nn1` [I-329] yielded a DC50 below 10 nM.

For `COc1cc2nn([C@H]3CC[C@H](CN4CCC(c5cccc6c(N7CCC(=O)NC7=O)cncc56)CC4)CC3)cc2cc1NC(=O)c1cccc(C(F)(F)F)n1` [I-97], the DC50 is below 10 nM.

As to `Cn1c(=O)n(C2CCC(=O)NC2=O)c2cccc(N3C[C@@H]4C[C@H]3CN4C[C@H]3CC[C@H](n4cc5cc(NC(=O)c6cccc(C(F)(F)F)n6)c(C(C)(C)O)cc5n4)CC3)c21` (some centres unmarked) [I-225], the 50% degradation concentration (DC50) was below 10 nM.

As for `O=C1CCN(c2cncc3c(N4CCN(C[C@H]5CC[C@H](n6cc7cc(NC(=O)c8cccc(C(F)(F)F)n8)c(Cl)cc7n6)CC5)CC4)cccc23)C(=O)N1` [I-358], the DC50 lay within 10 to 50 nM.

The molecule `CC(C)(O)c1cc2nn([C@H]3CC[C@H](CN4C[C@H]5C[C@@H]4CN5c4cccc5c(N6CCC(=O)NC6=O)cncc45)CC3)cc2cc1NC(=O)c1cccc(C(F)(F)F)n1` [I-229] yielded a DC50 below 10 nM.

Consider `COc1cc2nn([C@H]3CC[C@@H](CN4CC5(CC(CCNc6cccc7c6C(=O)N(C6CCC(=O)NC6=O)C7=O)C5)C4)CC3)cc2cc1NC(=O)c1cccc(C(C)(F)F)n1` (some centres unmarked) [I-11, 6-(1,1-Difluoroethyl)-N-[2-[4-[[6-[2-[[2-(2,6-dioxo-3-piperidyl)-1,3-dioxo-isoindolin-4-yl]amino]ethyl]-2-azaspiro[3.3]heptan-2-yl]methyl]cyclohexyl]-6-methoxy-indazol-5-yl]pyridine-2-carboxamide], for which the DC50 was in the range of 50 to 100 nM.

Molecule `COc1cc2nn([C@H]3CC[C@H](CN4CCC(c5cccc6c5n(C)c(=O)n6C5CCC(=O)NC5=O)CC4)CC3)cc2cc1NC(=O)c1nc(C(F)(F)F)cs1` (some centres unmarked) [I-175] yielded a DC50 below 10 nM.

In turn, `COc1cc2nn([C@H]3CC[C@H](CN(C)C4CCN(c5cccc6c5n(C)c(=O)n6C5CCC(=O)NC5=O)CC4)CC3)cc2cc1NC(=O)c1cncc(C(F)(F)F)c1` (some centres unmarked) [I-92] showed a DC50 below 10 nM.

The molecule `COc1cc2nn([C@H]3CC[C@H](CN(C)C4CCN(c5cccc6c5n(C)c(=O)n6C5CCC(=O)NC5=O)CC4)CC3)cc2cc1NC(=O)c1ccc(C(F)(F)F)cn1` (some centres unmarked) [I-16] displayed a DC50 of 10 to 50 nM.

Regarding `CC(C)Nc1cc(-n2ccc3cc(C(F)(F)F)cnc32)ncc1C(=O)N[C@H]1CC[C@H](CN2CCN(c3ccc4c(c3)n(C)c(=O)n4C3CCC(=O)NC3=O)CC2)CC1` (some centres unmarked) [I-374], the DC50 is above 200 nM.

As for `COc1ccc2c(c1C1=CCN(C[C@H]3CC[C@H](n4cc5cc(NC(=O)c6cccc(C(F)(F)F)n6)ccc5n4)CC3)CC1)n(C)c(=O)n2C1CCC(=O)NC1=O` (some centres unmarked) [I-355], the DC50 is below 10 nM.

`COc1ccc2c(c1C1CCN(C[C@H]3CC[C@H](n4cc5cc(NC(=O)c6cccc(C(F)(F)F)n6)c(F)cc5n4)CC3)CC1)n(C)c(=O)n2C1CCC(=O)NC1=O` (some centres unmarked) [I-47] yielded a half-maximal degradation concentration (DC50) of 10 to 50 nM.

The molecule `Cn1c(=O)n(C2CCC(=O)NC2=O)c2cccc(C3CCN(C[C@H]4C[C@H](n5cc6cc(NC(=O)c7cccc(C(F)(F)F)n7)c(Cl)cc6n5)C4)CC3)c21` (some centres unmarked) [I-90] had a DC50 of 10 to 50 nM.

The molecule `COc1cc2nn([C@H]3C[C@H](CN4CCC(c5c(C)ccc6c5n(C)c(=O)n6C5CCC(=O)NC5=O)CC4)C3)cc2cc1NC(=O)c1cccc(C(F)(F)F)n1` (some centres unmarked) [I-137] returned a DC50 below 10 nM.
